Patent US10253045B2, “Crystalline forms of a therapeutic compound and uses thereof” (Kala Pharmaceuticals, Inc., priority 2014, dated 2019)
≈ marks a conversion by molar mass, not a printed value.

Experiments:
[1] = Thermodynamic aqueous solubility; format: physicochemical; conditions: for Equilibrated form in suspension: XRPD of equilibrated solids after the solubility measurement in water, ambient temperature
Procedure: The thermodynamic solubility values of Compound 5 using Crystalline Forms I and II as starting forms were determined in water. In one vial, 10 mg of Crystalline Form I of Compound 5 and 1 mL of water were stirred at ambient temperature for 24 hours at 400 RPM. In a separate vial, 10 mg of Crystalline Form II of Compound 5 was suspended in 1 mL of water, and then the suspension was stirred at ambient temperature for 48 hours at 200 RPM. The equilibrated solids were then separated by dispensing 500 μL of the suspension into a 1.5-mL centrifuge tube, and then centrifuged for 5 minutes at 13,200 RPM using an Eppendorf 5415D centrifuge. As much of the supernatant as possible was decanted using a Pasteur pipette and dispensed into a new 1.5-mL centrifuge tube. The samples were again centrifuged for 5 minutes at 13,200 RPM using the same instrument. The Compound 5 content and pH values of the supernatant were determined by HPLC and pH meter, respectively. The pH of the supernatant was determined to be 9.16.

[2] = Wet milling to nanocrystals: particle size and crystal form stability (XRPD); format: physicochemical; conditions: XRPD of milled samples compared with neat form
Procedure: Crystalline Forms of Compound 5 were wet-milled in the presence of stabilizers that enable the preparation of mucus-penetrating particles (MPP) or nanocrystals. The same milling process was employed for all samples. Milling media, specifically 0.5 mL bulk volume of 1-mm ceria-stabilized zirconium oxide beads, was added to a glass vial. Approximately 25 mg of Compound 5 Crystalline Form I or Crystalline Form II and 0.475 mL of milling solution, as specified in each example, were then added to the vial yielding a slurry of 5% Compound 5. A magnetic stir bar was used to agitate the beads, stirring at approximately 500 rpm.
Neat Crystalline Form I of Compound 5 synthesized according to Example 1 was wet-milled in the presence of PLURONIC® F127 (also known as Poloxamer 407) or polyvinyl alcohol with an average MW of 31 kDa and average hydrolysis of 88% (PVA), and a buffer.
Loss of crystallinity and possible form change to amorphous and Crystalline Form II occurred during milling.
Neat Crystalline Form II of Compound 5 prepared in accordance with Example 2 was wet-milled the presence of PLURONIC® F127 (also known as Poloxamer 407) and a buffer.
Approximately 100 μL of Sample A was transferred directly onto the surface of the sample XRPD holder, then was allowed to air dry.

Row | SMILES | Equilibrated form in suspension [1] | Equilibrated form in suspension ([1]; listed as I) | solubility ([1]; water, 22 °C, pH 9.16, water, thermodynamic from solid, ambient temperature (ca. 22° C.), 10 mg in 1 mL stirred 24 h (Form I) or 48 h (Form II), supernatant pH 9.16, HPLC) | Stability of crystalline form to the milling process ([2]; listed as Crystalline Form I of Compound 5) | Solubility in Water ([1]; water, ambient temperature (ca. 22° C.), 10 mg in 1 mL stirred 24 h (Form I) or 48 h (Form II), supernatant pH 9.16, HPLC) | Stability of crystalline form to the milling process ([2]; listed as Crystalline Form II of Compound 5)
1 | Cc1cc(C(=O)Nc2cc(Oc3ccc4nc(NC(=O)CCCN5CCC6(CC5)COC6)cn4n3)ccc2C)n(C)n1 [Crystalline Form I, N-(5-((2-(4-(2-oxa-7-azaspiro[3.5]nonan-7-yl)butanamido)imidazo[1,2-b]pyridazin-6-yl)oxy)-2-methylphenyl)-1,3-dimethyl-1H-pyrazole-5-carboxamide] | converted to amorphous | Amorphous | 27.8 µg/mL (≈ 48.5 µM) | not stable to the milling process |  | 
2 | Cc1cc(C(=O)Nc2cc(Oc3ccc4nc(NC(=O)CCCN5CCC6(CC5)COC6)cn4n3)ccc2C)n(C)n1 [Crystalline Form II, N-(5-((2-(4-(2-oxa-7-azaspiro[3.5]nonan-7-yl)butanamido)imidazo[1,2-b]pyridazin-6-yl)oxy)-2-methylphenyl)-1,3-dimethyl-1H-pyrazole-5-carboxamide] | stable |  |  |  | 15.76 µg/mL (≈ 27.5 µM) | stable to the milling process
